Results published in US10701934B2, “Synergistic weed control from applications of penoxsulam and benzobicyclon or clomazone and benzobicyclon” (Dow AgroSciences LLC, priority 2013, dated 2020).

Tests used:
[1] = test system: Purple Nutsedge, Cyperus rotundus (CYPRO); test: In-water application in transplanted rice in the greenhouse, visual weed control of CYPRO; assay type: in vivo; conditions: 22 days after application, 0-100 scale
Text: Weed seeds or nutlets of the desired test plant species were planted in puddled soil (mud) prepared by mixing a shredded, non-sterilized mineral soil (50.5 percent silt, 25.5 percent clay, and 24 percent sand, with a pH of about 7.6 and an organic matter content of about 2.9 percent) and water at a 1:1 volumetric ratio. The prepared mud was dispensed in 365 milliliter (mL) aliquots into 16-ounce (oz.) non-perforated plastic pots with a surface area of 86.59 square centimeters (cm^2) leaving a headspace of 3 centimeters (cm) in each pot. Rice seeds were planted in Sun Gro MetroMix® 306 planting mixture, which typically has a pH of 6.0 to 6.8 and an organic matter content of about 30 percent, in plastic plug trays. Seedlings at the second or third leaf stage of growth were transplanted into 860 mL of mud contained in 32-oz. non-perforated plastic pots with a surface area of 86.59 cm^2 4 days prior to herbicide application. The paddy was created by filling the headspace of the pots with 2.5 to 3 cm of water. When required to ensure good germination and healthy plants, a fungicide treatment and/or other chemical or physical treatment was applied. The plants were grown for 4-22 days in a greenhouse with an approximate 14 hour (h) photoperiod which was maintained at about 29° C. during the day and about 26° C. during the night. […] Treatment requirements for each compound or herbicidal component were calculated based upon the rates being tested, the concentration of active ingredient or acid equivalent in the formulation, an application volume of 2 mL per component per pot, and an application area of 86.59 cm^2 per pot. For formulated compounds, a measured amount was placed in an individual 100 or 200 mL glass vial and was dissolved in a volume of 1.25% volume per volume (v/v) Agri-Dex® crop oil concentrate to obtain application solutions. […] The results measured at 22 days following application of the compositions are provided in Table 1 (Penoxsulam and Benzobicyclon) and Table 2 (Clomazone and Benzobicyclon).

[2] = test system: Early Watergrass, Echinochloa oryzoides (ECHOR); test: In-water application in transplanted rice in the greenhouse, visual weed control of ECHOR; assay type: in vivo; conditions: 22 days after application, 0-100 scale
Text: Weed seeds or nutlets of the desired test plant species were planted in puddled soil (mud) prepared by mixing a shredded, non-sterilized mineral soil (50.5 percent silt, 25.5 percent clay, and 24 percent sand, with a pH of about 7.6 and an organic matter content of about 2.9 percent) and water at a 1:1 volumetric ratio. The prepared mud was dispensed in 365 milliliter (mL) aliquots into 16-ounce (oz.) non-perforated plastic pots with a surface area of 86.59 square centimeters (cm^2) leaving a headspace of 3 centimeters (cm) in each pot. Rice seeds were planted in Sun Gro MetroMix® 306 planting mixture, which typically has a pH of 6.0 to 6.8 and an organic matter content of about 30 percent, in plastic plug trays. Seedlings at the second or third leaf stage of growth were transplanted into 860 mL of mud contained in 32-oz. non-perforated plastic pots with a surface area of 86.59 cm^2 4 days prior to herbicide application. The paddy was created by filling the headspace of the pots with 2.5 to 3 cm of water. When required to ensure good germination and healthy plants, a fungicide treatment and/or other chemical or physical treatment was applied. The plants were grown for 4-22 days in a greenhouse with an approximate 14 hour (h) photoperiod which was maintained at about 29° C. during the day and about 26° C. during the night. Nutrients were added as Osmocote® (17:6:10, N:P:K+minor nutrients) at 2 grams (g) per 16-oz. pot and 4 g per 32-oz. pot. Water was added on a regular basis to maintain the paddy flood, and supplemental lighting was provided with overhead metal halide 1000-Watt lamps as necessary. The plants were employed for testing when they reached the first through fourth true leaf stage. Treatments of penoxsulam and benzobicyclon consisted of penoxsulam and benzobicyclon, applied alone or in combination. Treatments of clomazone and benzobicyclon consisted of clomazone and benzobicyclon, applied alone or in combination. Penoxsulam was formulated as Grasp® SC, clomazone was formulated as Command® 3ME, and benzobicyclon was formulated as 3.5% flowable or as technical grade material. Treatment requirements for each compound or herbicidal component were calculated based upon the rates being tested, the concentration of active ingredient or acid equivalent in the formulation, an application volume of 2 mL per component per pot, and an application area of 86.59 cm^2 per pot. For formulated compounds, a measured amount was placed in an individual 100 or 200 mL glass vial and was dissolved in a volume of 1.25% volume per volume (v/v) Agri-Dex® crop oil concentrate to obtain application solutions. […] The results measured at 22 days following application of the compositions are provided in Table 1 (Penoxsulam and Benzobicyclon) and Table 2 (Clomazone and Benzobicyclon).

[3] = Benzobicyclon 100 g ai/ha alone

Structure (SMILES): CC1(C)CON(Cc2ccccc2Cl)C1=O [Clomazone, 2-[(2-chlorophenyl)methyl]-4,4-dimethyl-3-isoxazolidinone]
- % Visual Weed Control 22DAA CYPRO Observed ([1]; Clomazone 112 g ai/ha alone): 0%

Structure (SMILES): CS(=O)(=O)c1ccc(C(=O)C2=C(Sc3ccccc3)C3CCC(C3)C2=O)c(Cl)c1 (stereo not shown) [Benzobicyclon, 3-(2-chloro-4-mesylbenzoyl)-2-phenylthiobicyclo[3.2.1]oct-2-en-4-one]
- % Visual Weed Control 22DAA ECHOR Observed ([2]; Benzobicyclon 25 g ai/ha alone): 0%
- % Visual Weed Control 22DAA ECHOR Observed ([2]; Benzobicyclon 50 g ai/ha alone): 10%
- % Visual Weed Control 22DAA ECHOR Observed [2, 3]: 15%
- % Visual Weed Control 22DAA CYPRO Observed ([1]; Benzobicyclon 50 g ai/ha alone): 10%
- % Visual Weed Control 22DAA CYPRO Observed [1, 3]: 30%

Structure (SMILES): COc1cnc(OC)n2nc(NS(=O)(=O)c3c(OCC(F)F)cccc3C(F)(F)F)nc12 [Penoxsulam]
- % Visual Weed Control 22DAA ECHOR Observed ([2]; Penoxsulam 10 g ai/ha alone): 85%
